According to patent publication US9597407B2, “Targeted antimicrobial moieties” (C3 Jian, Inc., priority 2009, dated 2017):
“Also recorded” adds a separate entry of the source.

System: bacteria
Assay: Binding of targeting peptides to microorganisms (Table 3)
Conditions: microorganism bound by the targeting peptide; binding in aqueous buffers chosen by peptide solubility, preferably 1x PBS

“PF-160 (SFHASLTKNEKPIKSTG; Peptide with targeting and/or antimicrobial activity)” was tested. Which “Target(s)” value did it give?
Its value is “S. epidermidis”.

“PF-161 (RGRALASTATTRPARRRR; Peptide with targeting and/or antimicrobial activity)” was tested. Which “Target(s)” value did it give?
Its value is “S. epidermidis; also recorded: M. luteus; also recorded: E. coli; also recorded: C. jejuni”.

How did the “Target(s)” value turn out when “PF-162 (GIRRLHSVENLNREISHRMAGLR; Peptide with targeting and/or antimicrobial activity)” was run?
Its value is “S. epidermidis and MRSA”.

Which “Target(s)” value does the source give for “PF-163 (TSWLRAAERQEIGEPTKTFGEKTTSL; Peptide with targeting and/or antimicrobial activity)” here?
The value was “S. epidermidis”.

“PF-165 (GPVSVVASLRRGTTVQRHSQNNHNKGKP; Peptide with targeting and/or antimicrobial activity)” was tested. Which “Target(s)” value did it give?
The value was “MRSA and C. jejuni”.

Which “Target(s)” value does the source give for “PF-166 (SKAVSRKRSI; Peptide with targeting and/or antimicrobial activity)” here?
The value was “E. coli; also recorded: C. jeikeium”.

With “PF-169 (APGSAADSPRSRADD; Peptide with targeting and/or antimicrobial activity)” as the substance, how does the “Target(s)” value read?
Its value is “S. epidermidis; also recorded: E. coli; also recorded: C. albicans; also recorded: E. faecalis; also recorded: C. jeikeium”.

Which “Target(s)” value does the source give for “PF-172 (LTGVRRPWRAPWAGTSGWALR; Peptide with targeting and/or antimicrobial activity)” here?
Its value is “S. epidermidis and M. luteus and E. coli and P. aeruginosa and MRSA and E. faecalis and C. jejuni”.

How did the “Target(s)” value turn out when “PF-174 (RGGDSPARRRPGLAGPGGPG; Peptide with targeting and/or antimicrobial activity)” was run?
Its value is “S. epidermidis; also recorded: P. aeruginosa; also recorded: C. jeikeium”.

“PF-177 (VTSEPGIAHDIRLLPRAAAFR; Peptide with targeting and/or antimicrobial activity)” was tested. Which “Target(s)” value did it give?
Its value is “M. luteus and MRSA and E. faecalis and C. jeikeium”.

For “PF-181 (GIAPRRNEWGAVGGR; Peptide with targeting and/or antimicrobial activity)”, which “Target(s)” value is on record?
Its value is “S. epidermidis and M. luteus and E. coli and MRSA and E. faecalis and C. jeikeium”.

“PF-182 (LPATRDKTRVPASVAGAP; Peptide with targeting and/or antimicrobial activity)” was tested. Which “Target(s)” value did it give?
The value was “S. epidermidis; also recorded: M. luteus; also recorded: E. coli; also recorded: E. faecalis; also recorded: C. jeikeium”.

How did the “Target(s)” value turn out when “PF-183 (KPGISVENRQ; Peptide with targeting and/or antimicrobial activity)” was run?
The value was “S. epidermidis and M. luteus and E. coli and C. albicans and MRSA and E. faecalis and C. jeikeium”.

With “PF-184 (LIADRHIRA; Peptide with targeting and/or antimicrobial activity)” as the substance, how does the “Target(s)” value read?
The value was “S. epidermidis and M. luteus and E. coli and P. aeruginosa and C. albicans and MRSA and C. jeikeium”.

Which “Target(s)” value does the source give for “PF-185 (RPAQARQGPGGLIADRHIRA; Peptide with targeting and/or antimicrobial activity)” here?
The value was “E. coli; also recorded: P. aeruginosa”.

For “PF-187 (EIQKIAKGVSGQVYGPSRQITISKKR; Peptide with targeting and/or antimicrobial activity)”, which “Target(s)” value is on record?
The value was “S. epidermidis and M. luteus and E. coli and MRSA”.

How did the “Target(s)” value turn out when “PF-189 (GNLTRSREAARATQ; Peptide with targeting and/or antimicrobial activity)” was run?
The value was “S. epidermidis and M. luteus and C. albicans and MRSA and E. faecalis and C. jejuni”.

“PF-193 (PPHCPPGHAKKGWC; Peptide with targeting and/or antimicrobial activity)” was tested. Which “Target(s)” value did it give?
Its value is “S. epidermidis and M. luteus and E. coli and MRSA and E. faecalis and C. jejuni”.

“PF-194 (MKGNKLATAHEQPVKNSAPPL; Peptide with targeting and/or antimicrobial activity)” was tested. Which “Target(s)” value did it give?
The value was “C. jeikeium”.

How did the “Target(s)” value turn out when “PF-195 (EMAEGSADDRLRKTPRDC; Peptide with targeting and/or antimicrobial activity)” was run?
Its value is “S. epidermidis; also recorded: M. luteus; also recorded: E. faecalis; also recorded: C. jeikeium”.

How did the “Target(s)” value turn out when “PF-197 (CNALLRRGHPPSAL; Peptide with targeting and/or antimicrobial activity)” was run?
The value was “S. epidermidis; also recorded: M. luteus; also recorded: C. albicans; also recorded: E. faecalis; also recorded: C. jejuni”.

“PF-200 (GIELKSLIMAQIERWRQA; Peptide with targeting and/or antimicrobial activity)” was tested. Which “Target(s)” value did it give?
The value was “S. epidermidis and M. luteus and MRSA and E. faecalis and C. jeikeium”.

With “PF-201 (GCRPASLSDADPDGR; Peptide with targeting and/or antimicrobial activity)” as the substance, how does the “Target(s)” value read?
The value was “S. epidermidis; also recorded: M. luteus; also recorded: E. coli; also recorded: C. albicans; also recorded: E. faecalis; also recorded: C. jeikeium; also recorded: C. jejuni”.

“PF-202 (ALNRASLRLALGE; Peptide with targeting and/or antimicrobial activity)” was tested. Which “Target(s)” value did it give?
The value was “S. epidermidis and M. luteus and E. coli and MRSA and E. faecalis and C. jeikeium and C. jejuni”.

Which “Target(s)” value does the source give for “PF-206 (KLRSASKKSLQEKSCGIMPEKPAG; Peptide with targeting and/or antimicrobial activity)” here?
The value was “M. luteus; also recorded: C. albicans; also recorded: C. jeikeium; also recorded: C. jejuni”.

How did the “Target(s)” value turn out when “PF-207 (AAGCRDLGSLSSLVTNPS; Peptide with targeting and/or antimicrobial activity)” was run?
The value was “M. luteus; also recorded: C. jeikeium”.

For “PF-210 (EREDGCDAMPLP; Peptide with targeting and/or antimicrobial activity)”, which “Target(s)” value is on record?
The value was “S. epidermidis and P. aeruginosa and C. albicans and MRSA and E. faecalis and C. jeikeium and C. jejuni”.

How did the “Target(s)” value turn out when “PF-213 (MTTGVDFIIEKV; Peptide with targeting and/or antimicrobial activity)” was run?
The value was “S. epidermidis”.

For “PF-214 (GHLRVCWVFSASLLTPFRSATLI; Peptide with targeting and/or antimicrobial activity)”, which “Target(s)” value is on record?
Its value is “S. mutans; also recorded: S. epidermidis; also recorded: M. luteus; also recorded: E. coli; also recorded: P. aeruginosa; also recorded: A. baumannii”.

With “PF-216 (ESVDKITEALEEDGFPAKVQ; Peptide with targeting and/or antimicrobial activity)” as the substance, how does the “Target(s)” value read?
Its value is “S. mutans; also recorded: E. coli”.

“PF-217 (DWEFTHKTIPQKK; Peptide with targeting and/or antimicrobial activity)” was tested. Which “Target(s)” value did it give?
The value was “S. mutans”.

“PF-218 (SETPEKPVGTFFYSIYYKIIL; Peptide with targeting and/or antimicrobial activity)” was tested. Which “Target(s)” value did it give?
Its value is “S. epidermidis; also recorded: M. luteus; also recorded: P. aeruginosa; also recorded: A. baumannii”.

“PF-219 (FLALAVIAGLFKVILIYAAPYLK; Peptide with targeting and/or antimicrobial activity)” was tested. Which “Target(s)” value did it give?
The value was “S. epidermidis; also recorded: M. luteus; also recorded: P. aeruginosa; also recorded: A. baumannii”.

Which “Target(s)” value does the source give for “PF-221 (VFDNIDINF; Peptide with targeting and/or antimicrobial activity)” here?
Its value is “S. epidermidis; also recorded: M. luteus; also recorded: P. aeruginosa”.

How did the “Target(s)” value turn out when “PF-223 (VKFCIECQTKLERKRR; Peptide with targeting and/or antimicrobial activity)” was run?
The value was “S. epidermidis; also recorded: M. luteus; also recorded: A. baumannii”.

With “PF-225 (MNCASPEFKKLMELYK; Peptide with targeting and/or antimicrobial activity)” as the substance, how does the “Target(s)” value read?
The value was “S. epidermidis”.

With “PF-228 (NQLGSQAFAQL; Peptide with targeting and/or antimicrobial activity)” as the substance, how does the “Target(s)” value read?
Its value is “S. mutans”.

How did the “Target(s)” value turn out when “PF-229 (DPILIQIGFTRFALRKAEAEKIEIQVEEGVPA; Peptide with targeting and/or antimicrobial activity)” was run?
Its value is “S. epidermidis; also recorded: M. luteus; also recorded: P. aeruginosa; also recorded: A. baumannii”.

For “PF-230 (EDKPTNTIQEIKPVKWQ; Peptide with targeting and/or antimicrobial activity)”, which “Target(s)” value is on record?
Its value is “S. mutans”.

How did the “Target(s)” value turn out when “PF-231 (AVRDFKKSVREEDEAASLNSPRTIDAQVKTSESTSVKS; Peptide with targeting and/or antimicrobial activity)” was run?
The value was “S. mutans”.

Which “Target(s)” value does the source give for “PF-232 (FDQLYALEREGKLDELLA; Peptide with targeting and/or antimicrobial activity)” here?
Its value is “S. epidermidis; also recorded: M. luteus”.

With “PF-236 (KEIRTATVAELNAKRRLTSAEQALAEVS; Peptide with targeting and/or antimicrobial activity)” as the substance, how does the “Target(s)” value read?
Its value is “S. mutans; also recorded: S. epidermidis; also recorded: E. coli; also recorded: C. albicans; also recorded: S. pneumoniae; also recorded: E. faecalis”.

How did the “Target(s)” value turn out when “PF-237 (YVKPKVGVHE; Peptide with targeting and/or antimicrobial activity)” was run?
Its value is “S. epidermidis”.

How did the “Target(s)” value turn out when “PF-238 (RNAVVVTEATFPKYEEEITNYLNRRFGEDWSLKLEKCSVA; Peptide with targeting and/or antimicrobial activity)” was run?
Its value is “S. mutans and S. epidermidis and E. coli and P. aeruginosa and C. albicans and MRSA and S. pneumoniae and E. faecalis”.

For “PF-239 (PKHNVVTGVSVDLDYKP; Peptide with targeting and/or antimicrobial activity)”, which “Target(s)” value is on record?
Its value is “S. mutans; also recorded: E. coli”.

With “PF-240 (RITEVPPDEHSDR; Peptide with targeting and/or antimicrobial activity)” as the substance, how does the “Target(s)” value read?
The value was “S. mutans; also recorded: E. coli”.

With “PF-242 (KLFEDPLIKSKAVENFQTTWHEQCLAKELAKNM; Peptide with targeting and/or antimicrobial activity)” as the substance, how does the “Target(s)” value read?
Its value is “S. mutans; also recorded: E. coli”.
